The values that follow are results of earlier work, collected in patent US20040266704A1, “Method comprising irinotecan for treatment of breast cancer” (priority 2003, published 2004).

Molecules are shown by their SMILES.

In data set [1] the test system is advanced or recurrent breast cancer. The conditions noted are these: intravenous drip-infusion; patients with advanced breast cancer.
For data set [2], the system named is advanced breast cancer. The conditions noted are these: intravenous; patients with prior endocrine therapy and prior chemotherapy including adriamycin or other anthracyclines.
The subject of data set [3] is recurrent breast cancer. The conditions noted are these: intravenous; four cases, previous chemotherapy including doxorubicin.
Data set [4] relates to anthracycline resistant metastatic breast cancer. The following applies: intravenous salvage therapy; twelve patients, prior chemotherapy including an anthracycline.
Data set [5] concerns advanced and metastatic breast cancer pretreated with doxorubicin and docetaxel. The conditions noted are these: intravenous.
The test system of data set [6] is refractory advanced breast cancer. The conditions noted are these: IV, two schedules; 103 patients who failed an anthracycline, a taxane or both; preliminary data.

In the case of `CCc1c2c(nc3ccc(OC(=O)N4CCC(N5CCCCC5)CC4)cc13)-c1cc3c(c(=O)n1C2)COC(=O)[C@]3(O)CC` [CPT-11, [1,4′-Bipiperidine]-1′-carboxylic acid (4S)-4,11-diethyl-3,4,12,14-tetrahydro-4-hydroxy-3,14-dioxo-1H-pyrano[3′,4′:6,7]indolizino[1,2-b]quinolin-9-yl ester], the “clinical efficacy against advanced or recurrent breast cancer” value in data set [1] was “effective”; in data set [3], “effective agent”. Besides, the “clinical efficacy in advanced breast cancer” value in data set [2] is reported as “promising drug”. The “treatment results in metastatic breast cancer” value in data set [4] is on record as “satisfactory”. Moreover, in data set [5], the “clinical efficacy in the salvage setting” value was “inactive”. Further, in data set [6], the toxicity profile entry was “acceptable toxicity profile”.
